Data reported in ChEMBL document CHEMBL4417631, “Oral peptide inhibitors of interleukin-23 receptor and their use to treat inflammatory bowel diseases” (2017).
*1 amine or outer side, *2 acyl side, *3 side chain or, on linkers, in order; H or OH if unused. Where a SMILES comes first, the peptide text is derived from it. Bridges are numbered along the chain shown (N, C = ends). [ ]: non-standard residue; d: D form. Abu(4-yl) = O=C([C@H](CC[*:3])N[*:1])[*:2]; 2Nal = N[C@@H](Cc1ccc2ccccc2c1)C(=O)O; AEF = NCCOc1ccc(C[C@H](N)C(=O)O)cc1; αMeL = CC(C)C[C@](C)(N)C(=O)O

Tests used:
Interleukin-23 receptor [1] = molecular target: T1, Interleukin-23 receptor (Homo sapiens, UniProt Q5VWK5); experiment: Inhibition of interleukin-23 binding to human interleukin-23 receptor incubated for 2 hrs by competitive binding ELISA
T1 sequence (Q5VWK5 whole entry): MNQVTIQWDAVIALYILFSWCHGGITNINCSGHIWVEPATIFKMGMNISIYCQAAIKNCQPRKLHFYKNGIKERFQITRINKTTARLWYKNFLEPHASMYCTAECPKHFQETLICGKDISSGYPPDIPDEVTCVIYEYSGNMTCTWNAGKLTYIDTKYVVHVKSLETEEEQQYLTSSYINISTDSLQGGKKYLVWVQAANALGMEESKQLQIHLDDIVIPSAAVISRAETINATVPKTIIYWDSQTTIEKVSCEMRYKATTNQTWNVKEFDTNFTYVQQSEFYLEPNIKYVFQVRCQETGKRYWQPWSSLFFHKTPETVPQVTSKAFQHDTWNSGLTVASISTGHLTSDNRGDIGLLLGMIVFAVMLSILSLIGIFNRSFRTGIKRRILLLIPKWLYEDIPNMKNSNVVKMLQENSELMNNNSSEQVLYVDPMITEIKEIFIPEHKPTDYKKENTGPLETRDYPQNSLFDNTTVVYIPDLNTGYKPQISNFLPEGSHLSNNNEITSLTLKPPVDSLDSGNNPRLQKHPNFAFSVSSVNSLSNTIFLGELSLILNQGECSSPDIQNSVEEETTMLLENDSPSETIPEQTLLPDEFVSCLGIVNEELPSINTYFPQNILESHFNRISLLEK

[2] = Half life in simulated intestinal fluid at 20 uM by LC-MS/MS analysis; assay type: ADME
Interleukin-23 receptor [3] = molecular target: T1, Interleukin-23 receptor; experiment: Inhibition of interleukin-23 receptor in human DB cells assessed as reduction in IL-23-stimulated STAT3 phosphorylation incubated for 30 mins by HTRF assay; assay type: cell-based
[4] = Half life in simulated gastric fluid at 20 uM by LC-MS/MS analysis; assay type: ADME
[5] = Inhibition of interleukin-23 binding to rat interleukin-23 receptor incubated for 2 hrs by competitive binding ELISA

Row | SMILES | IC50 (Interleukin-23 receptor [1]) | half-life at 20 µM [2] | IC50 (Interleukin-23 receptor [3]) | half-life at 20 µM [4] | IC50 [5]
1 | COc1ccc(C[C@H](NC(=O)[C@@H]2CSCC[C@H](NC(C)=O)C(=O)N[C@@H](CCC(N)=O)C(=O)N[C@@H]([C@@H](C)O)C(=O)N[C@@H](Cc3c[nH]c4ccccc34)C(=O)N[C@@H](CCC(N)=O)C(=O)N2)C(=O)N[C@@H](Cc2c[nH]c3ccccc23)C(=O)N[C@@](C)(CCCN)C(=O)N[C@@H](CCC(=O)O)C(=O)N[C@@H](CC(N)=O)C(=O)NCC(N)=O)cc1 | 25 to 100 nM | 3 to 6 h | < 10 nM | < 1 h | 25 to 100 nM
2 | CC(=O)NCCCC[C@H](NC(=O)[C@](C)(CCCCN)NC(=O)[C@H](Cc1ccc2ccccc2c1)NC(=O)[C@H](Cc1ccc(OCCN)cc1)NC(=O)[C@@H](NC(=O)[C@H](CCC(N)=O)NC(=O)[C@H](Cc1c[nH]c2ccccc12)NC(=O)[C@@H](NC(=O)[C@H](CCC(N)=O)NC(=O)[C@@H](NC(C)=O)C(C)(C)S)[C@@H](C)O)C(C)(C)S)C(=O)N[C@@H](CC(N)=O)C(=O)N[C@@H](CC(N)=O)C(N)=O | < 10 nM | > 6 h | < 10 nM | > 6 h | 10 to 25 nM
3 | COc1ccc(C[C@H](NC(=O)[C@H]2NC(=O)[C@H](CCC(N)=O)NC(=O)[C@H](Cc3c[nH]c4ccccc34)NC(=O)[C@H]([C@@H](C)O)NC(=O)[C@H](CCC(N)=O)NC(=O)[C@@H](NC(C)=O)CCSC2(C)C)C(=O)N[C@@H](Cc2ccc3ccccc3c2)C(=O)N[C@@](C)(CCCCN)C(=O)N[C@@H](CCC(=O)O)C(=O)N[C@@H](CC(N)=O)C(=O)NCC(N)=O)cc1 | 100 to 1000 nM | 3 to 6 h | 25 to 100 nM | 2 to 3 h | 100 to 1000 nM
4 | COc1ccc(C[C@H](NC(=O)[C@@H](NC(=O)[C@H](CCC(N)=O)NC(=O)[C@H](Cc2c[nH]c3ccccc23)NC(=O)[C@@H](NC(=O)[C@H](CCC(N)=O)NC(=O)[C@@H](NC(C)=O)C(C)(C)S)[C@@H](C)O)C(C)(C)S)C(=O)N[C@@H](Cc2ccc3ccccc3c2)C(=O)N[C@@](C)(CCCCN)C(=O)N[C@@H](CCCCNC(C)=O)C(=O)N[C@@H](CC(N)=O)C(=O)NCC(N)=O)cc1 | 25 to 100 nM | > 6 h | < 10 nM | > 6 h | 25 to 100 nM
5 | COc1ccc(C[C@H](NC(=O)[C@@H]2CSCC[C@H](NC(C)=O)C(=O)N[C@@H](CCC(N)=O)C(=O)N[C@@H]([C@@H](C)O)C(=O)N[C@@H](Cc3c[nH]c4ccccc34)C(=O)N[C@@H](CCC(N)=O)C(=O)N2)C(=O)N[C@@H](Cc2c[nH]c3ccccc23)C(=O)N[C@@](C)(CCCCN)C(=O)N[C@@H](CCC(=O)O)C(=O)N[C@@H](CC(N)=O)C(=O)NCC(N)=O)cc1 | 10 to 25 nM | > 6 h | 10 to 25 nM | < 1 h | 25 to 100 nM

Further lines, results first:

Row | IC50 (Interleukin-23 receptor [1]) | half-life at 20 µM [2] | IC50 (Interleukin-23 receptor [3]) | half-life at 20 µM [4] | IC50 [5] | SMILES
6 | < 10 nM | > 6 h | < 10 nM | 1 to 2 h | < 10 nM | CC(=O)N[C@H](CCC(=O)O)C(=O)N[C@H]1CCSC[C@@H](C(=O)N[C@@H](Cc2ccc(OCCN)cc2)C(=O)N[C@@H](Cc2ccc3ccccc3c2)C(=O)N[C@@](C)(CCCCN)C(=O)N[C@@H](CCC(=O)O)C(=O)N[C@@H](CC(N)=O)C(=O)N[C@@H](CC(N)=O)C(N)=O)NC(=O)[C@H](CCC(N)=O)NC(=O)[C@H](Cc2c[nH]c3ccccc23)NC(=O)[C@H]([C@@H](C)O)NC(=O)[C@H](CCC(N)=O)NC1=O
7 | < 10 nM | > 6 h | < 10 nM | > 6 h | < 10 nM | CC(=O)N[C@H]1CCSC[C@@H](C(=O)N[C@@H](Cc2ccc(OCCN)cc2)C(=O)N[C@@H](Cc2ccc3ccccc3c2)C(=O)N[C@@](C)(CCCCN)C(=O)N[C@@H](CCC(=O)O)C(=O)N[C@@H](CC(N)=O)C(=O)NCC(N)=O)NC(=O)[C@H](CCC(N)=O)NC(=O)[C@H](Cc2c[nH]c3ccccc23)NC(=O)[C@H]([C@@H](C)O)NC(=O)[C@H](CCC(N)=O)NC1=O
8 | < 10 nM | > 6 h | < 10 nM | 3 to 6 h | < 10 nM | CC(=O)NCCCC[C@H](NC(=O)[C@](C)(CCCCN)NC(=O)[C@H](Cc1ccc2ccccc2c1)NC(=O)[C@H](Cc1ccc(OCCN)cc1)NC(=O)[C@@H]1CSCC[C@H](NC(=O)CCC(=O)O)C(=O)N[C@@H](CCC(N)=O)C(=O)N[C@@H]([C@@H](C)O)C(=O)N[C@@H](Cc2c[nH]c3ccccc23)C(=O)N[C@@H](CCC(N)=O)C(=O)N1)C(=O)N[C@@H](CC(N)=O)C(=O)NCC(N)=O
9 | < 10 nM | 2 to 3 h | < 10 nM | < 1 h | < 10 nM | CC(=O)NCCCC[C@H](NC(=O)[C@](C)(CC(C)C)NC(=O)[C@H](Cc1ccc2ccccc2c1)NC(=O)[C@H](Cc1ccc(OCCN)cc1)NC(=O)[C@@H]1CSCC[C@H](NC(C)=O)C(=O)N[C@@H](CCC(N)=O)C(=O)N[C@@H]([C@@H](C)O)C(=O)N[C@@H](Cc2c[nH]c3ccccc23)C(=O)N[C@@H](CCC(N)=O)C(=O)N1)C(=O)N[C@@H](CC(N)=O)C(=O)N[C@@H](CC(N)=O)C(N)=O (Ac-[Abu(4-yl)]QTWQC[AEF][2Nal][αMeL]K(Ac)NN-NH2; thioether 1-6)
10 | < 10 nM | 1 to 2 h | < 10 nM | < 1 h | 25 to 100 nM | COc1ccc(C[C@H](NC(=O)[C@@H]2CSCC[C@H](NC(=O)[C@@H](CCCCNC(=O)COCC(=O)NCCCC[C@@H](NC(C)=O)C(=O)N[C@H]3CCSC[C@@H](C(=O)N[C@@H](Cc4ccc(OC)cc4)C(=O)N[C@@H](Cc4ccc5ccccc5c4)C(=O)N[C@@](C)(CC(C)C)C(=O)N[C@@H](CCC(=O)O)C(=O)N[C@@H](CC(N)=O)C(=O)NCC(N)=O)NC(=O)[C@H](CCC(N)=O)NC(=O)[C@H](Cc4c[nH]c5ccccc45)NC(=O)[C@H]([C@@H](C)O)NC(=O)[C@H](CCC(N)=O)NC3=O)NC(C)=O)C(=O)N[C@@H](CCC(N)=O)C(=O)N[C@@H]([C@@H](C)O)C(=O)N[C@@H](Cc3c[nH]c4ccccc34)C(=O)N[C@@H](CCC(N)=O)C(=O)N2)C(=O)N[C@@H](Cc2ccc3ccccc3c2)C(=O)N[C@@](C)(CC(C)C)C(=O)N[C@@H](CCC(=O)O)C(=O)N[C@@H](CC(N)=O)C(=O)NCC(N)=O)cc1
11 | 25 to 100 nM | > 6 h | 10 to 25 nM | < 1 h | 25 to 100 nM | COc1ccc(C[C@H](NC(=O)[C@@H]2CSCC[C@H](NC(C)=O)C(=O)N[C@@H](CCC(N)=O)C(=O)N[C@@H]([C@@H](C)O)C(=O)N[C@@H](Cc3c[nH]c4ccccc34)C(=O)N[C@@H](CCC(N)=O)C(=O)N2)C(=O)N[C@@H](Cc2cccc3ccccc23)C(=O)N[C@@](C)(CCCCN)C(=O)N[C@@H](CCCCNC(C)=O)C(=O)N[C@@H](CC(N)=O)C(=O)NCC(N)=O)cc1
12 | 10 to 25 nM | 2 to 3 h | < 10 nM | < 1 h | 10 to 25 nM | COc1ccc(C[C@H](NC(=O)[C@@H]2CSCC[C@H](NC(C)=O)C(=O)N[C@@H](CCC(N)=O)C(=O)N[C@@H]([C@@H](C)O)C(=O)N[C@@H](Cc3c[nH]c4ccccc34)C(=O)N[C@@H](CCC(N)=O)C(=O)N2)C(=O)N[C@@H](Cc2ccc3ccccc3c2)C(=O)N[C@@](C)(CCCN)C(=O)N[C@@H](CCCCNC(C)=O)C(=O)N[C@@H](CC(N)=O)C(=O)NCC(N)=O)cc1
